The values below are quoted from earlier work in patent publication US6166008A, “Treatment of schizophrenia with ampakines and neuroleptics” (Cortex Pharmaceuticals, Inc., priority 1998, dated 2000).

Molecules are shown by their SMILES.

The data set deals with fast synaptic potentials in hippocampus. To be noted: metabolite of aniracetam; cited from earlier work.

Take `COc1ccc(C(=O)NCCCC(=O)O)cc1` [anisoyl-GABA]: the aniracetam-like effects result is reported as “only weak aniracetam-like effects”.
